# From patent US8614064B2, “Methods of diagnosing atherosclerosis by measuring ApoCI” (The Johns Hopkins University, priority 2003, dated 2013)
# Columns and labels:
# caveolin = assay: Western measurement of caveolin-I level in AoSMC; assay type: cell-based, human; details: ApoCI-treated cells
# Description: (§1) Confluent cultures of AoSMC were preincubated with serum-free medium for 30 min and then treated with ApoCI (2.5 μg/ml medium), HMS (58.8 μg apoA-I/ml medium and 6.2 μg ApoCI/ml medium), and C2-Ceramide (30 μM). At indicated time periods cells were harvested in PBS and pellets lysed in 10 mM HEPES buffer (pH 7.4) 5 mM EDTA, 0.25 mM EGTA, 50 mM NaF, 0.35 M sucrose, 0.1% Nonidet P-40 and protease inhibitors 2 μg/ml aprotinin, 10 μg/ml leupeptin, 5 μg/ml pepstatin, and 1 mM PMSF. Protein concentration was determined using BCA-kit (Pierce, Rockford, Ill.). 100 μg of protein was subjected to electrophoresis in denaturing conditions on 4-15% polyacrylamide gel and electro transferred onto nitrocellulose (BioRad, Rochester, N.Y.). After the transfer, membranes were blocked for 1 h at room temperature in TBS-T/5% milk. Western assay was performed using rabbit caveolin-I (1:1000), SR-BI (1:5000) or goat ABCA1 (1:1000) primary antibody (Santa Cruz Biotechnology, Santa Cruz, Calif.) and horseradish peroxidase-conjugated anti-rabbit or anti-goat antibody (Amersham Pharmacia Biotech, Piscataway, N.J.). Blots were developed using ECL^plus Western blotting detection reagents (Amersham Pharmacia Biotech) and were scanned by laser densitometry. The intensity of the signals were quantified with the ImageGuant program (Molecular Dynamic, Sunnyvale, Calif.).
# Src kinase = assay: Analysis of p53/p56 Lyn (Src) kinase expression in AoSMC; assay type: cell-based, human; details: ApoCI-treated cells
# Description: Confluent cultures of AoSMC were incubated with ApoCI (2.5 μg/ml medium), ApoCIII (2.5 μg/ml medium), ApoCI-enriched HDL (1 μg apoA-I/ml medium), or […] (5 μg apoA-I/ml medium). Cells were harvested in PBS at various time intervals and stored frozen in the presence of the protease inhibitor cocktail above. Western analysis for p53/p56 Lyn kinase was performed using primary anti-Lyn p53/p56 antibody (1:300) (Santa Cruz Biotechnology) and chemiluminescence (Amersham Pharmacia Biotech, Piscataway, N.J.).
# [1] = biological target: T1, lecithin cholesterol acyl transferase (Homo sapiens, UniProt P04180); details: % of that of apoA-I; Soutar et al. 1975; cited from earlier work
# T1 sequence (P04180 25-440): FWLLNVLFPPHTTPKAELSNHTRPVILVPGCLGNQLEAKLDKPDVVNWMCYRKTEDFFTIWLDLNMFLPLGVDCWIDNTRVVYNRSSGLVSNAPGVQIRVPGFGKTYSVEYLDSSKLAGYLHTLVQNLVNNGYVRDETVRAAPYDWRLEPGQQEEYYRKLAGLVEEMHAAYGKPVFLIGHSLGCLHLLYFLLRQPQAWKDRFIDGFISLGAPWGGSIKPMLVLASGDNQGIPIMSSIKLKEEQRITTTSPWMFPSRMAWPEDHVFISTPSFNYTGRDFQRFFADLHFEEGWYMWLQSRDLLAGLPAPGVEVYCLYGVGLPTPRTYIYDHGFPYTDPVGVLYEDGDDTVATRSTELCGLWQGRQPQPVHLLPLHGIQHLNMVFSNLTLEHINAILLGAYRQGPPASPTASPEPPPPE
# SR-BI = assay: Western measurement of scavenger receptor BI level in AoSMC; assay type: cell-based, human; details: ApoCI-treated cells
# Description: as §1
# ABC-A1 = assay: Western measurement of ABC transporter ABCA1 level in AoSMC; assay type: cell-based, human; details: ApoCI-treated cells
# Description: as §1
# acid sphingomyelinase = biological target: T2, acid sphingomyelinase (Homo sapiens, UniProt P17405); assay: Acid sphingomyelinase activity in cultured human ASMC (specificity of GW4869); assay type: cell-based; details: with GW4869; control 400 nmol/mg protein; did not alter
# T2 construct: acid sphingomyelinase activity (control: 400 nmol/mg protein; GW4869: 340 nmol/mg protein) in cultured human ASMC; host or cells: cultured human ASMC
# T2 sequence (P17405 47-631): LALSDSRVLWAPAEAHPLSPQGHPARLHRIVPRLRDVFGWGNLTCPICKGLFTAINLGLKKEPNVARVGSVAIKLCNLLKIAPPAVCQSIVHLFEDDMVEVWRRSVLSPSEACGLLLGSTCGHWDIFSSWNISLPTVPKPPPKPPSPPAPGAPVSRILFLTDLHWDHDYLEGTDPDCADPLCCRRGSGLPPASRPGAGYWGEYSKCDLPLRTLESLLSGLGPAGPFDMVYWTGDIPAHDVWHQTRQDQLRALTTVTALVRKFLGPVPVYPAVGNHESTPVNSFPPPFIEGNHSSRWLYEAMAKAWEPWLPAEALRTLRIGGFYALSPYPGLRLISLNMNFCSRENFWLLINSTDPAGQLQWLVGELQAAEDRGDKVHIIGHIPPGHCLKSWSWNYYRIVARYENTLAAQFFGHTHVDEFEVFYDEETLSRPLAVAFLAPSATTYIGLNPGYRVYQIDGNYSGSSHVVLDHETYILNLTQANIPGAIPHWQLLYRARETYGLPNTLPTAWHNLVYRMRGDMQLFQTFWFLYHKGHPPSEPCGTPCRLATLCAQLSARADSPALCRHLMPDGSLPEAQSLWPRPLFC
effect on Src kinase (Src kinase),acid sphingomyelinase activity (acid sphingomyelinase) [nmol/mg protein],Compound,level of caveolin (caveolin),stimulation of lecithin cholesterol acyl transferase relative to apolipoprotein A-I [1] [%],cellular level of the scavenger receptor binding protein (SR-BI) (SR-BI),cellular level of the ATP binding cassette (ABC-A1) protein (ABC-A1)
stimulated,–,"Apolipoprotein C-I (TPDVSSALDKLKEFGNTLEDKARELISRIKQSELSAKMREWFSETFQKVKEKLKIDS; UniProt P02654 27-83, looked up) [ApoCI, 6.6-kDa single-chain plasma protein of 57 amino acids; purified human ApoCI purchased from Academy Bio-Medical Company]",did not alter,~80,transiently and significantly decreased,transiently and significantly decreased
–,340,O=C(/C=C/c1ccc(/C=C/C(=O)Nc2ccc(C3=NCCN3)cc2)cc1)Nc1ccc(C2=NCCN2)cc1 [GW4869],–,–,–,–
